{"source": "patent US11453647B2", "about": "“Benzimidazole derivatives as adenosine receptor antagonists” (Merck Patent GmbH, priority 2017, dated 2022)", "key": {"A2B receptors [1]": {"target": "T1, A2B receptors (Homo sapiens, UniProt P29275)", "T1 sequence (P29275 1-332)": "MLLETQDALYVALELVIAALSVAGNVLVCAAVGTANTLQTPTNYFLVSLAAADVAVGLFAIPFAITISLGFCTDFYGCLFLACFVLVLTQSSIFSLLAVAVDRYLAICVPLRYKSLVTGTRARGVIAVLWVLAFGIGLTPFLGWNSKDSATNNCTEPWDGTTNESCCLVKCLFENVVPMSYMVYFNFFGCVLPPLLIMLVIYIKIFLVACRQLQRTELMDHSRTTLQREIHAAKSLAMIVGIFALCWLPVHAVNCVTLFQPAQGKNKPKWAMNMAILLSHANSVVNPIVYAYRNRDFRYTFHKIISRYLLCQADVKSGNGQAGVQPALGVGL", "details": "antagonists; cited from earlier work"}, "human A3 receptor": {"target": "T2, human A3 receptor (Homo sapiens, UniProt P0DMS8)", "T2 construct": "expressed in transfected cells; host or cells: CHO", "T2 sequence (P0DMS8 1-318)": "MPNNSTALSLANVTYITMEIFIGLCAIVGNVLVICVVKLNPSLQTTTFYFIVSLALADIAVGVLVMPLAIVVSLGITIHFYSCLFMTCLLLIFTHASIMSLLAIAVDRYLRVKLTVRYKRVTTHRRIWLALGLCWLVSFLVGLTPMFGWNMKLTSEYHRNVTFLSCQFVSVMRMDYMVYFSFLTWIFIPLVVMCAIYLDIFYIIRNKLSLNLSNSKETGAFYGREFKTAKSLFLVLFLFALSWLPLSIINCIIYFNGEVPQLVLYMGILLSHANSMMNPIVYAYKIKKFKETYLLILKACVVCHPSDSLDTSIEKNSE", "experiment": "functional cAMP (HTRF) assay, recombinant CHO cells expressing human A3 receptor, forskolin, agonist IB-MECA", "type": "cell-based", "method_in_brief": "(§1)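 Recombinant CHO cells expressing A1 or A3 receptor (Gi-coupled) were stimulated with forskolin together with test compound and agonist (CPA for A1, IB-MECA for A3), incubated 30 min, then cellular cAMP was read by HTRF. Data were normalized to inhibitor control and DMSO neutral control, then curve-fitted.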"}, "mouse Pan T cells [2]": {"test_system": "mouse Pan T cells", "experiment": "mouse Pan T cell IL-2 rescue from A2A agonist CGS-21680 (ELISA, 24 h)", "type": "cell-based", "details": "Mus musculus, T-cell", "description": "(§2) Adenosine (Ado) in tumor microenvironment can inhibit T cell activity by signaling through A2A receptors and suppress cytokine secretion by T cells. […] Potential A2A antagonists or A2A/A2B dual antagonists can rescue T cells from this inhibition. Herein, we describe the in vitro system we established using Pan T cells from mouse spleens to screen potential A2A antagonists or A2A/A2B dual antagonists for their activity. The method described involves the use of CD3/CD28 pre-coated beads to stimulate Pan T cells purified from mouse splenocytes, combined with the addition of A2A agonist along with potential A2A or A2A/A2B dual antagonists to evaluate potentiation of T cell cytokine production.\n(§3) Briefly, mouse Pan T cells are purified from spleens of BALB/c mice using Pan T cell isolation kit Mouse II (MACS Miltenyi biotech Cat # Order no. 130-095-130) according to manufacturer's protocol. The purified T cells are seeded in Nunc™ 96-Well Polystyrene Round Bottom Microwell Plates in RPMI medium with 10% heat inactivated fetal bovine serum. The cells are rested at 37° C. for 1 h before activating with CD3/CD28 pre-coated beads (Dynabeads™ Mouse T-Activator CD3/CD28; Cat #11456D). After 30 min the cells are treated with varying doses of test antagonist(s). […] After 24 h incubation IL-2 levels in the supernatants and after 48 h incubation IFN-γ levels in the supernatants are measured by ELISAs according to manufacturer's protocol (R&D systems Cat # DY402 (IL-2); DY485 (IFN-γ)). Once the concentrations are calculated, the difference of cytokine concentration of DMSO control and agonist alone control is calculated (called A) and the percentage of rescue by each concentration of antagonist is calculated by using Microsoft Excel. These percentages of cytokine rescue in a dose dependent manner of antagonist is plotted in GraphPad Prism software and IC50 is calculated."}, "[3]": {"experiment": "pharmacokinetic properties in mouse after single intravenous and oral administration", "type": "in vivo", "details": "PK data in mouse; for Feces iv: @0.2 (dose, unit not given); for clearance / half-life / Cmax / Vd: female, plasma, 0.2 mg/kg; for Cmax: dose-normalized to 1 mg/kg; for Vd: read-out: Vss", "description": "The objective of the study was to obtain information on the pharmacokinetic properties of the compounds of the present invention in female Wistar rats/mice following single intravenous and oral administration.\nFemale Wistar rats/mice (n=6) received either a single intravenous (bolus) injection or an oral administration (by gavage) of the tested compound.\nThe concentrations of the compounds in plasma, feces were quantified using an UPLC method with tandem mass spectrometric detection (LC-MS/MS) previously developed at the ‘Institute of Drug Metabolism and Pharmacokinetics’. The LC-MS/MS system consisted of a Waters Acquity UPLC coupled to an AB Sciex mass spectrometer API 5500 Q-trap. […] The detection of the compounds was performed using multiple reaction monitoring in the positive ionization mode. Plasma samples were spiked with internal standard (20 μl) and the analyte was extracted from the matrix using tertiary-butyl methyl ether (tBME). The organic phase was evaporated to dryness under a stream of nitrogen. The residue was dissolved in acetonitrile/0.1% formic acid for LC-MS/MS analysis. Feces samples were homogenized with 4-times their volume of an ethanol/water mixture (4:1, v/v). Aliquots of the aqueous-ethanolic extracts were spiked with internal standard, diluted with acetonitrile/water (1:1, v/v) and directly injected into the LC-MS/MS system.\nPharmacokinetic parameters Cmax and tmax were taken from the observed data. […] AUC values were calculated by non-compartmental analysis using the linear up/log down method. Numerical data for mean plasma concentrations and derived pharmacokinetic parameters were rounded to 3 significant digits for presentation."}, "human A2A receptor": {"target": "T3, human A2A receptor (Homo sapiens, UniProt P29274)", "T3 construct": "expressed in transfected cells; host or cells: HEK293", "T3 sequence (P29274 whole entry)": "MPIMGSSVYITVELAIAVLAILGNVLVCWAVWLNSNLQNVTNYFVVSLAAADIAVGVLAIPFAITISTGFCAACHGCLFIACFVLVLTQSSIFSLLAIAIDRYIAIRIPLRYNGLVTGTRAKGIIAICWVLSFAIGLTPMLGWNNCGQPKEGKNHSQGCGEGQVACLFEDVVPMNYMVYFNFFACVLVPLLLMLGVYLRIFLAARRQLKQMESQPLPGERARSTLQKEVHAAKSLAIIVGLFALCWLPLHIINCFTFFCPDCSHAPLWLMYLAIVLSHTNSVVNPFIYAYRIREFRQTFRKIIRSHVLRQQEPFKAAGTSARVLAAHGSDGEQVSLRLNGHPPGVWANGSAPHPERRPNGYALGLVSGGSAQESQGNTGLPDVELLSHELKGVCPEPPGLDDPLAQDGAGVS", "experiment": "functional cAMP (HTRF) assay, recombinant HEK293 cells expressing human A2A receptor, agonist NECA", "type": "cell-based"}, "mouse Pan T cells [4]": {"test_system": "mouse Pan T cells", "experiment": "mouse Pan T cell IFN-γ rescue from A2A agonist CGS-21680 (ELISA, 48 h)", "type": "cell-based", "details": "Mus musculus, T-cell", "description": "as §2, §3"}, "human A1 receptor": {"target": "T4, human A1 receptor (Homo sapiens, UniProt P30542)", "T4 construct": "expressed in transfected cells; host or cells: CHO", "T4 sequence (P30542 1-326)": "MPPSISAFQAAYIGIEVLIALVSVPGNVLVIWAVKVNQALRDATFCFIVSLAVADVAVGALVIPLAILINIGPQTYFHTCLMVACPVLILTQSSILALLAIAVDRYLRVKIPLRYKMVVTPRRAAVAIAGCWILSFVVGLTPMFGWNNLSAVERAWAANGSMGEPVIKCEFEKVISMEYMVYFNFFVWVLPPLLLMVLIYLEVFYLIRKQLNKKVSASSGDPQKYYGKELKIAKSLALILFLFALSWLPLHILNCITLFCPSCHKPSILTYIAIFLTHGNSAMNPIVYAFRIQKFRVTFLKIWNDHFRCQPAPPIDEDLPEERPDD", "experiment": "functional cAMP (HTRF) assay, recombinant CHO cells expressing human A1 receptor, forskolin, agonist CPA", "type": "cell-based", "method_in_brief": "as §1"}, "A2B receptors [5]": {"target": "T1, A2B receptors", "experiment": "functional cAMP (HTRF) assay, recombinant HEK293 cells expressing human A2B receptor, agonist NECA", "type": "cell-based", "set-up": "expressed in transfected cells; host or cells: HEK293"}}, "data": [{"smiles": "CCCn1c(=O)c2[nH]c(-c3ccc(S(=O)(=O)O)cc3)nc2n(CCC)c1=O", "note": "[DPSPX, 1,3-dipropyl-8-sulphophenylxanthine]", "values": [{"measurement": "affinities on A2B receptors", "setting": "A2B receptors [1]", "value": "mid to high nM range"}]}, {"smiles": "O=c1[nH]c(=O)c2nc3ccccc3nc2[nH]1", "note": "[alloxazine, 2,4-dioxobenzopteridine]", "values": [{"measurement": "affinities on A2B receptors", "setting": "A2B receptors [1]", "value": "mid to high nM range"}]}, {"smiles": "C#CCC1(O)CCN(C(=O)Nc2nc3c(-c4cnn(C)c4)ccc(OC)c3[nH]2)CC1", "note": "[compound 92, 4-hydroxy-N-[7-methoxy-4-(1-methyl-1H-pyrazol-4-yl)-1H-1,3-benzodiazol-2-yl]-4-(prop-2-yn-1-yl)piperidine-1-carboxamide]", "values": [{"measurement": "IC50", "setting": "human A3 receptor", "value": "> 1", "unit": "µM"}, {"measurement": "IC50", "setting": "mouse Pan T cells [2]", "value": 1, "unit": "µM"}, {"measurement": "Feces iv", "setting": "[3]", "value": "26@0.2%"}, {"measurement": "clearance", "setting": "[3]", "value": 31.7, "unit": "mL/min/kg"}, {"measurement": "half-life", "setting": "[3]", "value": 33.4, "unit": "min"}, {"measurement": "Cmax", "setting": "[3]", "value": 892, "unit": "ng/mL"}, {"measurement": "Vd", "setting": "[3]", "value": 1.17, "unit": "L/kg"}, {"measurement": "IC50", "setting": "human A2A receptor", "value": "< 0.01", "unit": "µM"}, {"measurement": "IC50", "setting": "mouse Pan T cells [4]", "value": 0.5, "unit": "µM"}, {"measurement": "IC50", "setting": "human A1 receptor", "value": "> 1", "unit": "µM"}, {"measurement": "IC50", "setting": "A2B receptors [5]", "value": "< 1", "unit": "µM"}]}, {"smiles": "COc1ccc(-c2cnn(C)c2)c2nc(NC(=O)c3ccc(C(=O)N(C)C)cc3)[nH]c12", "note": "[compound 93, N4-[7-methoxy-4-(1-methyl-1H-pyrazol-4-yl)-1H-1,3-benzodiazol-2-yl]-N1,N1-dimethylbenzene-1,4-dicarboxamide]", "values": [{"measurement": "IC50", "setting": "human A3 receptor", "value": "> 1", "unit": "µM"}, {"measurement": "IC50", "setting": "mouse Pan T cells [2]", "value": 0.111, "unit": "µM"}, {"measurement": "Feces iv", "setting": "[3]", "value": "42@0.2%"}, {"measurement": "clearance", "setting": "[3]", "value": 6.77, "unit": "mL/min/kg"}, {"measurement": "half-life", "setting": "[3]", "value": 46.1, "unit": "min"}, {"measurement": "Cmax", "setting": "[3]", "value": 3160, "unit": "ng/mL"}, {"measurement": "Vd", "setting": "[3]", "value": 0.357, "unit": "L/kg"}, {"measurement": "IC50", "setting": "human A2A receptor", "value": "< 0.01", "unit": "µM"}, {"measurement": "IC50", "setting": "mouse Pan T cells [4]", "value": 0.35, "unit": "µM"}, {"measurement": "IC50", "setting": "human A1 receptor", "value": "> 1", "unit": "µM"}, {"measurement": "IC50", "setting": "A2B receptors [5]", "value": "< 0.1", "unit": "µM"}]}, {"smiles": "COc1ccc(-c2cnn(C)c2)c2nc(NC(=O)c3ccc(CN4CCCC4=O)cc3)[nH]c12", "note": "[compound 100, N-[7-methoxy-4-(1-methyl-1H-pyrazol-4-yl)-1H-1,3-benzodiazol-2-yl]-4-[(2-oxopyrrolidin-1-yl)methyl]benzamide]", "values": [{"measurement": "IC50", "setting": "human A3 receptor", "value": "> 1", "unit": "µM"}, {"measurement": "IC50", "setting": "mouse Pan T cells [2]", "value": 0.1, "unit": "µM"}, {"measurement": "Feces iv", "setting": "[3]", "value": "12.5@0.2%"}, {"measurement": "clearance", "setting": "[3]", "value": 22.5, "unit": "mL/min/kg"}, {"measurement": "half-life", "setting": "[3]", "value": 32.9, "unit": "min"}, {"measurement": "Cmax", "setting": "[3]", "value": 888, "unit": "ng/mL"}, {"measurement": "Vd", "setting": "[3]", "value": 1.05, "unit": "L/kg"}, {"measurement": "IC50", "setting": "human A2A receptor", "value": "< 0.01", "unit": "µM"}, {"measurement": "IC50", "setting": "mouse Pan T cells [4]", "value": 0.08, "unit": "µM"}, {"measurement": "IC50", "setting": "human A1 receptor", "value": "> 1", "unit": "µM"}, {"measurement": "IC50", "setting": "A2B receptors [5]", "value": "< 1", "unit": "µM"}]}, {"smiles": "COc1ccc(-c2cnn(C)c2)c2nc(NC(=O)N3CC[C@@]4(CCCOC4)C3)[nH]c12", "note": "[compound 114, (5S)-N-[7-methoxy-4-(1-methyl-1H-pyrazol-4-yl)-1H-1,3-benzodiazol-2-yl]-7-oxa-2-azaspiro[4.5]decane-2-carboxamide]", "values": [{"measurement": "IC50", "setting": "human A3 receptor", "value": "> 1", "unit": "µM"}, {"measurement": "IC50", "setting": "mouse Pan T cells [2]", "value": 0.9, "unit": "µM"}, {"measurement": "Feces iv", "setting": "[3]", "value": "9@0.2%"}, {"measurement": "clearance", "setting": "[3]", "value": 9.43, "unit": "mL/min/kg"}, {"measurement": "half-life", "setting": "[3]", "value": 66.6, "unit": "min"}, {"measurement": "Cmax", "setting": "[3]", "value": 1440, "unit": "ng/mL"}, {"measurement": "Vd", "setting": "[3]", "value": 0.842, "unit": "L/kg"}, {"measurement": "IC50", "setting": "human A2A receptor", "value": "< 0.01", "unit": "µM"}, {"measurement": "IC50", "setting": "mouse Pan T cells [4]", "value": 0.9, "unit": "µM"}, {"measurement": "IC50", "setting": "human A1 receptor", "value": "> 1", "unit": "µM"}, {"measurement": "IC50", "setting": "A2B receptors [5]", "value": "> 1", "unit": "µM"}]}, {"smiles": "CCCn1c(=O)[nH]c(=O)c2[nH]cnc21", "note": "[enprofylline, 3-n-propylxanthine]", "values": [{"measurement": "affinities on A2B receptors", "setting": "A2B receptors [1]", "value": "mid to high nM range"}]}]}
